Laboratory results: the NIST ThermoML archive (doi:10.1016/j.jct.2012.02.023)

Test: xn = mol fraction of the nth substance listed
Conditions: 101 kPa, Liquid; for speed of sound: Sing-around technique in a fixed-path interferometer; for mass density: Vibrating tube method

CCCC[n+]1cccc(C)c1.F[B-](F)(F)F [1-butyl-3-methylpyridinium tetrafluoroborate] + CCO
Conditions | mass density, 293.15 K [kg/m3] | mass density, 303.15 K [kg/m3] | mass density, 313.15 K [kg/m3] | mass density, 323.15 K [kg/m3] | speed of sound, 293.15 K [m/s] | speed of sound, 303.15 K [m/s] | speed of sound, 313.15 K [m/s] | speed of sound, 323.15 K [m/s]
x1 = 0.0572 | 861.245 | 852.837 | 844.506 | 835.724 | 1206 | 1177 | 1146.5 | 1116.4
x1 = 0.0964 | 900.833 | 892.417 | 884.287 | 875.61 | 1239.4 | 1212.4 | 1183.6 | 1155.2
x1 = 0.1466 | 942.807 | 934.902 | 926.796 | 918.466 | 1281 | 1254.5 | 1228.4 | 1202
x1 = 0.1964 | 977.495 | 969.562 | 961.571 | 953.451 | 1320 | 1294.8 | 1269.1 | 1244.2
x1 = 0.2431 | 1004.66 | 996.702 | 988.807 | 980.836 | 1355.1 | 1330 | 1304.6 | 1279.3
x1 = 0.2998 | 1032.24 | 1024.76 | 1016.86 | 1009.22 | 1390.6 | 1365.5 | 1340.4 | 1315.4
x1 = 0.3966 | 1069.96 | 1062.42 | 1055 | 1047.46 | 1442.7 | 1417.4 | 1392.4 | 1366.2
x1 = 0.4984 | 1100.02 | 1092.8 | 1085.55 | 1078.03 | 1484.2 | 1459.2 | 1434.3 | 1409.9
x1 = 0.5931 | 1122.42 | 1115.36 | 1108.06 | 1100.95 | 1515.9 | 1491 | 1466.4 | 1442.2
x1 = 0.691 | 1141.63 | – | 1127.5 | 1120.36 | 1543.7 | – | 1494.9 | 1471.2
x1 = 0.8022 | 1159.85 | – | 1145.95 | 1138.97 | 1566.2 | – | 1517.2 | 1493.8
x1 = 0.8923 | 1172.56 | – | 1158.84 | 1151.94 | 1582.6 | – | 1534.7 | 1511.3
x1 = 0.9517 | 1180.05 | – | 1166.44 | 1159.62 | 1591.7 | – | 1543.7 | 1519.5

CCCC[n+]1cccc(C)c1.F[B-](F)(F)F [1-butyl-3-methylpyridinium tetrafluoroborate] + CO
Conditions | mass density, 293.15 K [kg/m3] | mass density, 303.15 K [kg/m3] | mass density, 313.15 K [kg/m3] | mass density, 323.15 K [kg/m3] | speed of sound, 293.15 K [m/s] | speed of sound, 303.15 K [m/s] | speed of sound, 313.15 K [m/s] | speed of sound, 323.15 K [m/s]
x1 = 0.0481 | 876.902 | 868.149 | 858.994 | 850.146 | 1203.1 | 1173.4 | 1143.9 | 1114.7
x1 = 0.1001 | 940.659 | 932.121 | 923.594 | 915.022 | 1271 | 1243.3 | 1215.7 | 1188.3
x1 = 0.1548 | 988.767 | 980.512 | 972.213 | 964.125 | 1330.9 | 1304.2 | 1277.6 | 1251.7
x1 = 0.2003 | 1019.3 | 1011.19 | 1003.35 | 995.225 | 1370 | 1344 | 1318.1 | 1292.4
x1 = 0.2487 | 1045.53 | 1037.61 | 1029.56 | 1021.63 | 1407.2 | 1381.6 | 1356 | 1330.8
x1 = 0.297 | 1066.65 | 1058.61 | 1050.84 | 1042.82 | 1433.6 | 1408.1 | 1382.9 | 1358
x1 = 0.4013 | 1101.04 | 1093.31 | 1085.48 | 1077.9 | 1482.7 | 1457.9 | 1433 | 1415
x1 = 0.4969 | 1123.82 | 1116.42 | 1108.81 | 1101.29 | 1514.2 | 1489.3 | 1464.9 | 1443.1
x1 = 0.5974 | 1142.04 | 1134.73 | 1127.47 | 1120.24 | 1538.7 | 1514.1 | 1489.9 | 1466.2
x1 = 0.6972 | 1156.18 | 1149.17 | 1142.08 | 1135 | 1557.9 | 1533.5 | 1509.5 | 1485.8
x1 = 0.8437 | 1172.39 | 1165.51 | 1158.69 | 1151.77 | 1580.4 | 1556.2 | 1532.6 | 1509.2
x1 = 0.8984 | 1177.43 | 1170.57 | 1163.79 | 1156.96 | 1587.2 | 1562.8 | 1539.3 | 1516
x1 = 0.9692 | 1183.29 | 1176.48 | 1169.74 | 1162.98 | 1595.6 | 1571.3 | 1547.5 | 1524.5

CCCC[n+]1ccc(C)cc1.F[B-](F)(F)F [1-butyl-4-methylpyridinium tetrafluoroborate] + CCO
Conditions | mass density, 293.15 K [kg/m3] | mass density, 303.15 K [kg/m3] | mass density, 313.15 K [kg/m3] | mass density, 323.15 K [kg/m3] | speed of sound, 293.15 K [m/s] | speed of sound, 303.15 K [m/s] | speed of sound, 313.15 K [m/s] | speed of sound, 323.15 K [m/s]
x1 = 0.0507 | 854.988 | 846.802 | 838.56 | 830.183 | 1206.5 | 1176.7 | 1147.1 | 1117.3
x1 = 0.1 | 904.491 | 896.578 | 888.401 | 880.152 | 1246.2 | 1219 | 1189.9 | 1162.1
x1 = 0.1971 | 976.866 | 969.284 | 961.403 | 953.269 | 1321.9 | 1296.3 | 1268.9 | 1240.4
x1 = 0.2912 | 1026.69 | 1019.31 | 1011.46 | 1003.86 | 1384.8 | 1359.2 | 1333.8 | 1308.5
x1 = 0.3903 | 1066.1 | 1058.84 | 1051.3 | 1043.95 | 1440.8 | 1415 | 1389.7 | 1364.8
x1 = 0.4876 | 1096.19 | 1088.98 | 1081.75 | 1074.66 | 1483.8 | 1457.9 | 1432.5 | 1408
x1 = 0.5825 | 1119.75 | 1112.72 | 1105.58 | 1098.5 | 1522.5 | 1496.8 | 1471.7 | 1446.7
x1 = 0.6879 | 1141.24 | 1134.29 | – | 1120.3 | 1548.5 | 1525.3 | 1499.5 | 1475.8
x1 = 0.7938 | 1159.02 | 1152.18 | 1145.03 | 1138.28 | 1576.1 | 1556 | – | 1502.9
x1 = 0.8927 | 1173 | 1166.2 | 1159.13 | 1152.42 | 1594.2 | 1569.1 | – | 1522.3
x1 = 0.9284 | 1177.54 | 1170.73 | 1163.69 | 1157 | 1601.9 | 1579.3 | – | 1530.5

CCCC[n+]1ccc(C)cc1.F[B-](F)(F)F [1-butyl-4-methylpyridinium tetrafluoroborate] + CO
Conditions | mass density, 293.15 K [kg/m3] | mass density, 303.15 K [kg/m3] | mass density, 313.15 K [kg/m3] | mass density, 323.15 K [kg/m3] | speed of sound, 293.15 K [m/s] | speed of sound, 303.15 K [m/s] | speed of sound, 313.15 K [m/s] | speed of sound, 323.15 K [m/s]
x1 = 0.0507 | 881.091 | 872.29 | 863.158 | 854.017 | 1208.6 | 1178.1 | 1148.1 | 1119.5
x1 = 0.0989 | 939.26 | 930.783 | 922.085 | – | 1271.8 | 1242.3 | 1214.2 | –
x1 = 0.1922 | 1013.58 | 1005.46 | 997.343 | 989.026 | 1364.3 | 1337.8 | 1311.3 | 1289
x1 = 0.2934 | 1064.12 | 1056.34 | 1048.54 | 1040.72 | 1433.1 | 1409.5 | 1381.4 | 1361.5
x1 = 0.3877 | 1096.33 | 1088.9 | 1081.21 | 1073.75 | 1479.9 | 1455.9 | 1431.2 | 1407.8
x1 = 0.4839 | 1120.56 | 1113.33 | 1105.85 | 1098.72 | 1517 | 1490.9 | 1464.4 | 1439.8
x1 = 0.5909 | 1140.92 | 1133.83 | 1126.57 | 1119.63 | 1546.9 | 1521.3 | 1494.6 | 1471.5
x1 = 0.6925 | 1155.91 | 1148.93 | 1141.79 | 1134.99 | 1568.3 | 1543.5 | 1518.2 | 1494.6
x1 = 0.8001 | 1168.52 | 1161.62 | 1154.59 | 1147.87 | 1587.9 | 1563.2 | 1538.4 | 1516
x1 = 0.9042 | 1178.4 | 1171.56 | 1164.56 | 1157.92 | 1602.5 | 1577.6 | 1553.6 | 1531.3
x1 = 0.9535 | 1182.44 | 1175.62 | 1168.62 | 1162.01 | 1607.8 | 1583.1 | 1558.9 | 1536.3
